{"source": "PubChem BioAssay AID330", "about": "(DTP/NCI, 2004)", "test_system": "P388 leukemia ip, CD2F1 mice, survival T/C", "test": "NCI In Vivo Anticancer Drug Screen. Data for tumor model P388 Leukemia (intraperitoneal) in CD2F1 (CDF1) mice", "settings": "endpoint: median survival time, higher = longer survival", "method_in_brief": "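Mice carrying the transplanted tumor received test compound or vehicle. Survival was recorded in each group, and the value is the treated-group measurement divided by that of the vehicle-treated control group.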", "key": {"[1]": {"settings": "dose: 60.0 mg/kg/injection, schedule: Q01DX005 (ip), vehicle: saline with Tween-80"}, "[2]": {"settings": "dose: 120.0 mg/kg/injection, schedule: Q01DX005 (ip), vehicle: saline with Tween-80"}, "[3]": {"settings": "dose: 60.0 mg/kg/injection, schedule: Q01DX005 (ip), vehicle: Klucel (hydroxypropylcellulose) (HPC)"}, "[4]": {"settings": "dose: 120.0 mg/kg/injection, schedule: Q01DX005 (ip), vehicle: Klucel (hydroxypropylcellulose) (HPC)"}, "[5]": {"settings": "dose: 240.0 mg/kg/injection, schedule: Q01DX005 (ip), vehicle: Klucel (hydroxypropylcellulose) (HPC)"}, "[6]": {"settings": "dose: 50.0 mg/kg/injection, schedule: Q01DX005 (ip), vehicle: saline with Tween-80"}, "[7]": {"settings": "dose: 100.0 mg/kg/injection, schedule: Q01DX005 (ip), vehicle: saline with Tween-80"}, "[8]": {"settings": "dose: 200.0 mg/kg/injection, schedule: Q01DX005 (ip), vehicle: saline with Tween-80"}, "[9]": {"settings": "dose: 100.0 mg/kg/injection, schedule: Q01DX001 (ip), vehicle: Klucel (hydroxypropylcellulose) (HPC)"}}, "note": "“And” between values parts separate entries of the source, which are not always exact repeats. Identical values can stand only once. Inconclusive results and toxic doses are left out."}
{"smiles": "COC(=O)/C(C1=C(Br)C(=O)C(C)=C(Br)C1=O)=C1/CCCN1", "values": [{"measurement": "T/C", "setting": "dose: 9.37 mg/kg/injection, schedule: Q01DX005 (ip), vehicle: Klucel (hydroxypropylcellulose) (HPC)", "result": "112 % of control"}, {"measurement": "T/C", "setting": "dose: 9.37 mg/kg/injection, schedule: Q04DX002 (ip), vehicle: Klucel (hydroxypropylcellulose) (HPC)", "result": "101 % of control"}, {"measurement": "T/C", "setting": "dose: 18.75 mg/kg/injection, schedule: Q01DX005 (ip), vehicle: Klucel (hydroxypropylcellulose) (HPC)", "result": "117 % of control"}, {"measurement": "T/C", "setting": "dose: 18.75 mg/kg/injection, schedule: Q04DX002 (ip), vehicle: Klucel (hydroxypropylcellulose) (HPC)", "result": "92 % of control"}, {"measurement": "T/C", "setting": "dose: 37.5 mg/kg/injection, schedule: Q01DX005 (ip), vehicle: Klucel (hydroxypropylcellulose) (HPC)", "result": "112 % of control"}, {"measurement": "T/C", "setting": "dose: 37.5 mg/kg/injection, schedule: Q04DX002 (ip), vehicle: Klucel (hydroxypropylcellulose) (HPC)", "result": "100 % of control"}, {"measurement": "T/C", "setting": "dose: 75.0 mg/kg/injection, schedule: Q04DX002 (ip), vehicle: Klucel (hydroxypropylcellulose) (HPC)", "result": "104 % of control"}]}
{"smiles": "CN(C)CCNc1cccc2c1C(=O)c1cccc(NCCN(C)C)c1C2=O", "values": [{"measurement": "T/C", "setting": "dose: 1.88 mg/kg/injection, schedule: Q01DX009 (ip), vehicle: water", "result": "99 % of control"}, {"measurement": "T/C", "setting": "dose: 3.75 mg/kg/injection, schedule: Q01DX009 (ip), vehicle: saline", "result": "101 % of control"}, {"measurement": "T/C", "setting": "dose: 3.75 mg/kg/injection, schedule: Q01DX009 (ip), vehicle: water", "result": "98 % of control"}, {"measurement": "T/C", "setting": "dose: 7.5 mg/kg/injection, schedule: Q01DX009 (ip), vehicle: saline", "result": "102 % of control"}, {"measurement": "T/C", "setting": "dose: 7.5 mg/kg/injection, schedule: Q01DX009 (ip), vehicle: water", "result": "110 % of control"}, {"measurement": "T/C", "setting": "dose: 15.0 mg/kg/injection, schedule: Q01DX009 (ip), vehicle: saline", "result": "98 % of control"}, {"measurement": "T/C", "setting": "dose: 15.0 mg/kg/injection, schedule: Q01DX009 (ip), vehicle: water", "result": "108 % of control"}, {"measurement": "T/C", "setting": "dose: 30.0 mg/kg/injection, schedule: Q01DX009 (ip), vehicle: water", "result": "106 % of control"}]}
{"smiles": "Nc1nnc(COc2ccc(Cl)cc2)n1N", "values": [{"measurement": "T/C", "setting": "[1]", "result": "107 % of control"}, {"measurement": "T/C", "setting": "[2]", "result": "108 % of control"}]}
{"smiles": "C#CCN1C(=O)N(CC#C)C(=O)C(CC#C)(C(CC=C)c2ccccc2)C1=O", "note": "(configuration not stated)", "values": [{"measurement": "T/C", "setting": "[1]", "result": "100 % of control"}, {"measurement": "T/C", "setting": "[2]", "result": "100 % of control"}, {"measurement": "T/C", "setting": "dose: 240.0 mg/kg/injection, schedule: Q01DX005 (ip), vehicle: saline with Tween-80", "result": "96 % of control"}]}
{"smiles": "CC1(C)N=C(NN=C2CCCCC2)SP1(=O)NCC(=O)O", "note": "(configuration not stated)", "values": [{"measurement": "T/C", "setting": "[3]", "result": "101 % of control"}, {"measurement": "T/C", "setting": "[4]", "result": "100 % of control"}, {"measurement": "T/C", "setting": "[5]", "result": "101 % of control"}]}
{"smiles": "O=[N+]([O-])OC1CCCC(O[N+](=O)[O-])c2c1n([O-])c1ccccc1[n+]2=O", "note": "(configuration not stated)", "values": [{"measurement": "T/C", "setting": "[6]", "result": "95 % of control"}, {"measurement": "T/C", "setting": "[7]", "result": "89 % of control"}, {"measurement": "T/C", "setting": "[8]", "result": "92 % of control"}]}
{"smiles": "CC(C)(CO)CS", "values": [{"measurement": "T/C", "setting": "dose: 50.0 mg/kg/injection, schedule: Q01DX009 (ip), vehicle: saline with Tween-80", "result": "99 % of control"}, {"measurement": "T/C", "setting": "dose: 100.0 mg/kg/injection, schedule: Q01DX009 (ip), vehicle: saline with Tween-80", "result": "100 % of control"}, {"measurement": "T/C", "setting": "dose: 200.0 mg/kg/injection, schedule: Q01DX009 (ip), vehicle: saline with Tween-80", "result": "97 % of control"}]}
{"smiles": "CC(C)N(c1ccnc(F)n1)C(C)C", "values": [{"measurement": "T/C", "setting": "dose: 30.0 mg/kg/injection, schedule: Q01DX005 (ip), vehicle: Klucel (hydroxypropylcellulose) (HPC)", "result": "102 % of control"}, {"measurement": "T/C", "setting": "[3]", "result": "104 % of control"}]}
{"smiles": "S=c1nnn(C2CCCN2)[nH]1", "note": "(configuration not stated)", "values": [{"measurement": "T/C", "setting": "[9]", "result": "100 % of control"}, {"measurement": "T/C", "setting": "dose: 200.0 mg/kg/injection, schedule: Q01DX001 (ip), vehicle: Klucel (hydroxypropylcellulose) (HPC)", "result": "97 % of control"}, {"measurement": "T/C", "setting": "dose: 400.0 mg/kg/injection, schedule: Q01DX001 (ip), vehicle: Klucel (hydroxypropylcellulose) (HPC)", "result": "100 % of control"}]}
{"smiles": "O=C(O)C(Nc1ccc2ccccc2c1)C(=O)O", "values": [{"measurement": "T/C", "setting": "[6]", "result": "94 % of control"}, {"measurement": "T/C", "setting": "[7]", "result": "103 % of control"}, {"measurement": "T/C", "setting": "[8]", "result": "94 % of control"}]}
{"smiles": "COC1=NC2=NC(OC)=NC3=C(Br)C=C(Br)C(=N1)N23", "values": [{"measurement": "T/C", "setting": "[3]", "result": "91 % of control"}, {"measurement": "T/C", "setting": "[4]", "result": "92 % of control"}, {"measurement": "T/C", "setting": "[5]", "result": "87 % of control"}]}
{"smiles": "CC(C)(C)OC(=O)NCC(=O)NNC(=O)OC(C)(C)C", "values": [{"measurement": "T/C", "setting": "dose: 100.0 mg/kg/injection, schedule: Q01DX009 (ip), vehicle: saline", "result": "118 % of control"}, {"measurement": "T/C", "setting": "dose: 200.0 mg/kg/injection, schedule: Q01DX009 (ip), vehicle: saline", "result": "118 % of control"}, {"measurement": "T/C", "setting": "dose: 400.0 mg/kg/injection, schedule: Q01DX009 (ip), vehicle: saline", "result": "118 % of control"}]}
{"smiles": "O=NN(CCCl)C(=O)Oc1cc(Cl)c(Cl)cc1Cl", "values": [{"measurement": "T/C", "setting": "dose: 25.0 mg/kg/injection, schedule: Q01DX001 (ip), vehicle: Klucel (hydroxypropylcellulose) (HPC)", "result": "116 % of control"}, {"measurement": "T/C", "setting": "dose: 50.0 mg/kg/injection, schedule: Q01DX005 (ip), vehicle: Klucel (hydroxypropylcellulose) (HPC)", "result": "86 % of control"}, {"measurement": "T/C", "setting": "dose: 75.0 mg/kg/injection, schedule: Q01DX001 (ip), vehicle: Klucel (hydroxypropylcellulose) (HPC)", "result": "154 % of control and 250 % of control"}, {"measurement": "T/C", "setting": "[9]", "result": "258 % of control"}]}
